Measured values reported in PMC2529273, “Pharmacological Properties of DOV 315,090, an ocinaplon metabolite” (BMC Pharmacology, 2008).
Values joined by “and” are separate entries in the source; they are usually repeats but may differ in a detail not shown here. Equal values may be shown once. Read-outs that look alike come from different tables or passages of the source.

Experiments:
[1] = target: T1, α1β2γ2S GABAA-R (Rattus norvegicus, UniProt P18508+P62813); assay: biochemical; format: binding; conditions: for IC50/DZ IC50: ratio to diazepam IC50
T1 sequence (P62813 28-455): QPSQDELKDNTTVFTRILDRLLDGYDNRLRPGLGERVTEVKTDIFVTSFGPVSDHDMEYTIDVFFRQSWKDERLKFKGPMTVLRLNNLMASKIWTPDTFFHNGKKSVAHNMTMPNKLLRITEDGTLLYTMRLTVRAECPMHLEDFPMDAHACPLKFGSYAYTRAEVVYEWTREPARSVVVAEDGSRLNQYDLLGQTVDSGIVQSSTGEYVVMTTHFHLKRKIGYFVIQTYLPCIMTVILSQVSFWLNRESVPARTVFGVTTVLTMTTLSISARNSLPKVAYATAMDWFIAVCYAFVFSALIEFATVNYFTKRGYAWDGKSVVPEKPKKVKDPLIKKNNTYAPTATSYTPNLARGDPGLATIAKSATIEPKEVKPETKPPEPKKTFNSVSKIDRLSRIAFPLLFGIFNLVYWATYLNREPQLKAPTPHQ
T1 sequence (P63138 25-474 partner limits assumed): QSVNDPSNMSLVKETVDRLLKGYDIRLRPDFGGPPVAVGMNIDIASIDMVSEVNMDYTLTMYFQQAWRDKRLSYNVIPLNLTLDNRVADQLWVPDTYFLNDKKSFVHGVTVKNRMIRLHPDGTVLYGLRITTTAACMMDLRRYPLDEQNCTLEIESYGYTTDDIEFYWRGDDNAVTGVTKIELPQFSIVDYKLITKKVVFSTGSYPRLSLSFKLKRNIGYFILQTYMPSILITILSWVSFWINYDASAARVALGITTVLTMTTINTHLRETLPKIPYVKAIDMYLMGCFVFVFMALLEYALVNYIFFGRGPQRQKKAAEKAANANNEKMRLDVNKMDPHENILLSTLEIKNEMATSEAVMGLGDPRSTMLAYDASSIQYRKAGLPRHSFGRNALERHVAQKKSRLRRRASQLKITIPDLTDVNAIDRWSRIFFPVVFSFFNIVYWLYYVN
T1 sequence (P18508 39-466): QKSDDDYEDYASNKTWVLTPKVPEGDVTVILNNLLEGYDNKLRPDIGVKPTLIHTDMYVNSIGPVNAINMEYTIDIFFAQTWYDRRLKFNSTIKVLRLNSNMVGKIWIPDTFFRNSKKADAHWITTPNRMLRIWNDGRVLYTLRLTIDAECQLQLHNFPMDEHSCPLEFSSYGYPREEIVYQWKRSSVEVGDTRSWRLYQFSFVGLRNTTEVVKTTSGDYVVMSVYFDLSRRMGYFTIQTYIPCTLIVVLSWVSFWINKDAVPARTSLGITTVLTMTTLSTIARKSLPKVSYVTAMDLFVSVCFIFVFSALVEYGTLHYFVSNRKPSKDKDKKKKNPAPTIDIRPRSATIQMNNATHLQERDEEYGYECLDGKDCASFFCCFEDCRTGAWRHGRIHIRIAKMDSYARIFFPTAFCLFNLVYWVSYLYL
Protocol: (§1) HEK293 cells (CRL 1573, American type Culture Collection, Rockville, MD, USA) were cultured in Dulbecco's modified Eagle's medium (D-MEM, Invitrogen, Carlsbad, CA, USA) supplemented with 10% fetal bovine serum (Invitrogen, Carlsbad, CA, USA) and 1% MEM Non-Essential Amino Acids Solution (Invitrogen, Carlsbad, CA, USA). cDNAs encoding rat GABAA-R subunits were in the following vectors: α1 and α5 in pRc/CMV, α2, α3, γ2S and γ3 in pcDNA3 and β2 in pcDNA1. The cells were transiently transfected (5 μg of each cDNA per 100 mm dish) using FuGene™ (Roche Diagnostics Corporation) at a 3:1 FuGene:DNA ratio. […] Forty-eight hours after transfection, cells were washed with ice-cold PBS, harvested and homogenized. Cell homogenates were centrifuged (100,000 g, 25 min) and washed three times by homogenization in ice-cold PBS buffer followed by centrifugation at 100,000 g for 25 min. The final pellets were stored at -20°C until needed.
(§2) The samples were then diluted with 5 ml of ice-cold buffer and filtered under vacuum through glass-fiber filters (GF/B Whatman). Filters were washed 3 times with 5 ml of buffer and the radioactivity was quantitated by liquid scintillation counting in 5 ml of Ecolite scintillation fluid (ICN). Non-specific binding determined in the presence of 100 μM Ro 15–1788 (Sigma-Aldrich) was subtracted from total binding to calculate specific binding. Data were analyzed by non-linear regression (Prism, Graph-Pad software).

[2] = target: T2, α1β2γ3 GABAA-R (Rattus norvegicus, UniProt P28473+P62813); assay: biochemical; format: binding; conditions: for IC50/DZ IC50: α1β2γ3, ratio to diazepam IC50
T2 construct: expressed in transfected cells; host or cells: HEK293 (CRL 1573), transient transfection
T2 sequence (P62813 28-455): as the sequence (P62813 28-455) above
T2 sequence (P63138 25-474 partner limits assumed): as the sequence (P63138 25-474 partner limits assumed) above
T2 sequence (P28473 18-467): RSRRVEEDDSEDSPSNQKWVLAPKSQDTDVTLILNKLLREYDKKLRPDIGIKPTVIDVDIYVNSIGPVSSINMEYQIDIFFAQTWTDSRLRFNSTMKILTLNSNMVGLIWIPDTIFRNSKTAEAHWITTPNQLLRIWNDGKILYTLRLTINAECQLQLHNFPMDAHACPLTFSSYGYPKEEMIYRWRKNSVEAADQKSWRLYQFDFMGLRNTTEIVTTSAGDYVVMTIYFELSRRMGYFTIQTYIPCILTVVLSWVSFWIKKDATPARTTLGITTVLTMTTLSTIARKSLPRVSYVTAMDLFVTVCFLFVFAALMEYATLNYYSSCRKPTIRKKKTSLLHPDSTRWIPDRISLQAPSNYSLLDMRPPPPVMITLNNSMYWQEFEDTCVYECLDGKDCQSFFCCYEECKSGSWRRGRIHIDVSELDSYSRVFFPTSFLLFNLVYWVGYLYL
Protocol: as §1, §2

[3] = target: T3, α2β2γ2S GABAA-R (Rattus norvegicus, UniProt P18508+P23576); assay: biochemical; format: binding; conditions: for IC50/DZ IC50: ratio to diazepam IC50
T3 sequence (P23576 29-451): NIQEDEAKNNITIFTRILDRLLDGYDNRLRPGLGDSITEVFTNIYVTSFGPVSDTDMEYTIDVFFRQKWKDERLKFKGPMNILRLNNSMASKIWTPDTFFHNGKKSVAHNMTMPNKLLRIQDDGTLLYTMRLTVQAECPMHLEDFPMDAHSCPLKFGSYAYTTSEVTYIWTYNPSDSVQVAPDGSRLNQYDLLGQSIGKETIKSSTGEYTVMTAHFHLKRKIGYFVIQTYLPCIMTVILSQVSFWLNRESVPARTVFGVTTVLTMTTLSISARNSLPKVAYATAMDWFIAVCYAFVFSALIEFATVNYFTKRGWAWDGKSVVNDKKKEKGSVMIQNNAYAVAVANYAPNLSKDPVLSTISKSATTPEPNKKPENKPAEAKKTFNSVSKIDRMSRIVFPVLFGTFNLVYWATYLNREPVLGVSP
T3 sequence (P63138 25-474 partner limits assumed): as the sequence (P63138 25-474 partner limits assumed) above
T3 sequence (P18508 39-466): as the sequence (P18508 39-466) above
Protocol: as §1, §2

[4] = target: T4, α2β2γ3 GABAA-R (Rattus norvegicus, UniProt P23576+P28473); assay: biochemical; format: binding; conditions: for IC50/DZ IC50: α2β2γ3, ratio to diazepam IC50
T4 construct: expressed in transfected cells; host or cells: HEK293 (CRL 1573), transient transfection
T4 sequence (P23576 29-451): as the sequence (P23576 29-451) above
T4 sequence (P63138 25-474 partner limits assumed): as the sequence (P63138 25-474 partner limits assumed) above
T4 sequence (P28473 18-467): as the sequence (P28473 18-467) above
Protocol: as §1, §2

[5] = target: T5, α3β2γ2S GABAA-R (Rattus norvegicus, UniProt P18508+P20236); assay: biochemical; format: binding; conditions: for IC50/DZ IC50: ratio to diazepam IC50
T5 sequence (P20236 29-493): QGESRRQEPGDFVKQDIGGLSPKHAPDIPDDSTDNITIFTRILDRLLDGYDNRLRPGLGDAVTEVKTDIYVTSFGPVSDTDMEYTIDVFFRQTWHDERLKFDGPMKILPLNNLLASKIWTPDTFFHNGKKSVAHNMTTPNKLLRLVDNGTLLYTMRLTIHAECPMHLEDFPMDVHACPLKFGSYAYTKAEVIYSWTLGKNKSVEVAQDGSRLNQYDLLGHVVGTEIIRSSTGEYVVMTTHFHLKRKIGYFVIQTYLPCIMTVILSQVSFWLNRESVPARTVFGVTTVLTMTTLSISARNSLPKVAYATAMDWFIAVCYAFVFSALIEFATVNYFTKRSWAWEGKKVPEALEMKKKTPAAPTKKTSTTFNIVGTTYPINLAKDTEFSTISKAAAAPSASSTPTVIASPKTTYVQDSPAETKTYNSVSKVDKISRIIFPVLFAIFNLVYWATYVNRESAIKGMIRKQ
T5 sequence (P63138 25-474 partner limits assumed): as the sequence (P63138 25-474 partner limits assumed) above
T5 sequence (P18508 39-466): as the sequence (P18508 39-466) above
Protocol: as §1, §2

[6] = target: T6, α5β2γ2S GABAA-R (Rattus norvegicus, UniProt P18508+P19969); assay: biochemical; format: binding; conditions: for IC50/DZ IC50: ratio to diazepam IC50
T6 sequence (P19969 32-464 limits assumed): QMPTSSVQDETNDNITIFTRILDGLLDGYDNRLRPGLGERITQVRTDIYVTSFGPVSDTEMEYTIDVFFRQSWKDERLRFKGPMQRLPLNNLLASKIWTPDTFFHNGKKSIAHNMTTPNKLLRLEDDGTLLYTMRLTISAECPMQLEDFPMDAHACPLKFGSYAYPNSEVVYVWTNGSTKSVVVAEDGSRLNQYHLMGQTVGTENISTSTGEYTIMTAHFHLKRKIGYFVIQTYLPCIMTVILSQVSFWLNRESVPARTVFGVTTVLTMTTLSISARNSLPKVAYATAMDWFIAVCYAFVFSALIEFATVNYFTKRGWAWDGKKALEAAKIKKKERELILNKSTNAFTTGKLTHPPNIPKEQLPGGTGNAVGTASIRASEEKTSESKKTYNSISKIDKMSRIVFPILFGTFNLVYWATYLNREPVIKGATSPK
T6 sequence (P63138 25-474 partner limits assumed): as the sequence (P63138 25-474 partner limits assumed) above
T6 sequence (P18508 39-466): as the sequence (P18508 39-466) above
Protocol: as §1, §2

[7] = target: T7, α5β2γ3 GABAA-R (Rattus norvegicus, UniProt P19969+P28473); assay: biochemical; format: binding; conditions: for IC50/DZ IC50: α5β2γ3, ratio to diazepam IC50
T7 construct: expressed in transfected cells; host or cells: HEK293 (CRL 1573), transient transfection
T7 sequence (P19969 32-464 limits assumed): as the sequence (P19969 32-464 limits assumed) above
T7 sequence (P63138 25-474 partner limits assumed): as the sequence (P63138 25-474 partner limits assumed) above
T7 sequence (P28473 18-467): as the sequence (P28473 18-467) above
Protocol: as §1, §2

[8] = target: T1, α1β2γ2S GABAA-R; assay: cell-based; conditions: for EC50/DZ EC50: ratio to diazepam EC50; for Emax/DZ Emax: ratio to diazepam Emax
Protocol: (§3) cRNAs encoding GABAA-R α1, α2, α3, α5, β2 and γ2S subunits were injected into oocytes from Xenopus laevis. […] GABA (Sigma) was prepared as a 1 M stock solution in ND96. Microelectrodes of 1–3 MΩ when filled with 3 M KCl were used to record from oocytes in a recording chamber continuously perfused with ND-96 buffer solution. During data acquisition, oocytes were clamped at a holding potential of -70 mV. Drugs were applied by perfusion at a rate of approximately 50 μl sec^-1 for 20 s followed by a 120 s wash. […] All experiments were performed at room temperature (22–24°C).
(§4) GABA concentration-response data was obtained for each subunit combination, and the GABA EC10 was determined by nonlinear regression using the logistic equation. This concentration of GABA was used for modulation studies. Peak current measurements were normalized and expressed as a fraction of the peak control current measurements. Control responses to an EC10 concentration of GABA were re-determined after every 2 – 4 applications of modulator + GABA. […] Potentiation data from each oocyte was fitted to the equation Potentiation = Emax × [Drug]/([Drug + EC50) by non-linear regression (Prism, Graph-Pad software). […] Given the lack of consistency of this possible high affinity effect, we have omitted it in fitting our concentration-effect curves. The choice of fitting to a monophasic or biphasic equation had only a small effect on the EC50 for the major component of modulation.
(§5) Rat GABAA-Rs consisting of α1β2γ2S, α2β2γ2S, α3β2γ2S and α5β2γ2S subunits were expressed in Xenopus oocytes. […] Higher concentrations (in parentheses) were excluded from the fit due to a decline in potentiation at higher concentrations.

[9] = target: T3, α2β2γ2S GABAA-R; assay: cell-based; conditions: for EC50/DZ EC50: ratio to diazepam EC50; for Emax/DZ Emax: ratio to diazepam Emax
Protocol: as §3, §4, §5

[10] = target: T6, α5β2γ2S GABAA-R; assay: cell-based; conditions: for EC50/DZ EC50: ratio to diazepam EC50; for Emax/DZ Emax: ratio to diazepam Emax
Protocol: as §3, §4, §5

[11] = target: T5, α3β2γ2S GABAA-R; assay: cell-based; format: cell-based; conditions: for EC50/DZ EC50: ratio to diazepam EC50; for Emax/DZ Emax: ratio to diazepam Emax
Protocol: as §3, §4, §5

[12] = in vivo; format: in vivo, rat
Protocol: At 1 h, corresponding to the time at which the anticonflict effect of ocinaplon was evaluated, the plasma concentration of DOV 315,090 is ~38% of the concentration of parent compound.
Figure 2 Pharmacokinetics of ocinaplon and DOV 315,090. Blood levels of ocinaplon (●,○) and DOV 315090 (▲,△) were determined at various times after i.v. (●,▲) or oral (○,△) administration of 5 mg/kg ocinaplon to rats. […] This animal may have regurgitated a portion of the dose (of the suspension).

[13] = [3H]Ro15-1788 displacement, n = 3, read-out: IC50
[14] = [3H]Ro15-1788 displacement, α1β2γ3, n = 3, read-out: IC50
[15] = α1β2γ3, mean ± SEM, n = 3, read-out: pIC50 (converted)
[16] = mean ± SEM, n = 3, read-out: pIC50 (converted)
[17] = [3H]Ro15-1788 displacement, α2β2γ3, n = 3, read-out: IC50
[18] = α2β2γ3, mean ± SEM, n = 3, read-out: pIC50 (converted)
[19] = [3H]Ro15-1788 displacement, α5β2γ3, n = 3, read-out: IC50
[20] = α5β2γ3, mean ± SEM, n = 3, read-out: pIC50 (converted)
[21] = α1β2γ2S, GABA EC10, number of oocytes in parentheses, read-out: EC50
[22] = α2β2γ2S, GABA EC10, number of oocytes in parentheses, read-out: EC50
[23] = α5β2γ2S, GABA EC10, mean ± SEM, read-out: pEC50 (converted)
[24] = α5β2γ2S, GABA EC10, number of oocytes in parentheses, read-out: EC50
[25] = α3β2γ2S, GABA EC10, mean ± SEM, read-out: pEC50 (converted)
[26] = α3β2γ2S, GABA EC10, number of oocytes in parentheses, read-out: EC50

SMILES: O=C(c1ccccn1)c1cnn2c(-c3ccncc3)ccnc12 [ocinaplon, 2-pyridinyl [7-(4-pyridinyl)pyrazolo[1,5-a]pyrimidin-3-yl]methanone]
- IC50 [1, 13]: 6.3 µM
- IC50/DZ IC50 [1]: 218
- IC50 [2, 14]: 2.3 µM
- IC50 [2, 15]: 2.24 µM
- IC50/DZ IC50 [2]: 10.5
- IC50 [3, 16]: 24 µM
- IC50/DZ IC50 [3]: 759
- IC50 [4, 17]: 20 µM
- IC50 [4, 18]: 18.2 µM
- IC50/DZ IC50 [4]: 115
- IC50 [5, 13]: 7.7 µM
- IC50 [5, 16]: 7.59 µM
- IC50/DZ IC50 [5]: 158
- IC50 [6, 13]: 9.6 µM
- IC50/DZ IC50 [6]: 355
- IC50 [7, 19]: 10 µM
- IC50 [7, 20]: 9.77 µM
- IC50/DZ IC50 [7]: 120
- Emax [8]: 132 ± 8%
- EC50 ([8]; α1β2γ2S, GABA EC10, mean ± SEM, read-out: pEC50 (converted)): 2690 nM
- EC50 [8, 21]: 2930 nM
- EC50/DZ EC50 ([8]; α1β2γ2S): 77
- Emax/DZ Emax ([8]; α1β2γ2S): 0.91
- Emax [9]: 150 ± 6%
- EC50 [9, 22]: 9.12 µM
- EC50/DZ EC50 ([9]; α2β2γ2S): 350
- Emax/DZ Emax ([9]; α2β2γ2S): 0.95
- Emax [10]: 84 ± 4%
- EC50 [10, 23]: 3.31 µM
- EC50 [10, 24]: 3.5 µM
- EC50/DZ EC50 ([10]; α5β2γ2S): 139
- Emax/DZ Emax ([10]; α5β2γ2S): 0.37
- Emax [11]: 181 ± 18%
- EC50 [11, 25]: 6.92 µM
- EC50 [11, 26]: 8.01 µM
- EC50/DZ EC50 ([11]; α3β2γ2S): 87
- Emax/DZ Emax ([11]; α3β2γ2S): 0.78
- concentration at 10 min ([12]; in vivo, rat, one animal excluded from the plot, 10 min after oral 5 mg/kg ocinaplon, may have regurgitated part of the dose, read-out: blood level): 470 ng/mL

SMILES: O=C(c1ccccn1)c1cnn2c(-c3cc[n+]([O-])cc3)ccnc12 [DOV 315,090, (7-(1-Oxidopyridin-1-ium-4-yl)pyrazolo [1,5-a]pyrimidin-3-yl)(pyridin-2-yl)methanone]
- IC50 [1, 13]: 7 µM
- IC50 [1, 16]: 6.46 µM
- IC50/DZ IC50 [1]: 220
- IC50/OC IC50 ([1]; ratio to ocinaplon IC50): 1.02
- IC50 [2, 14]: 5.5 µM
- IC50 [2, 15]: 5.37 µM
- IC50/DZ IC50 [2]: 25
- IC50/OC IC50 ([2]; α1β2γ3, ratio to ocinaplon IC50): 2.40
- IC50 [3, 13]: 24 µM
- IC50 [3, 16]: 23.4 µM
- IC50/DZ IC50 [3]: 760
- IC50/OC IC50 ([3]; ratio to ocinaplon IC50): 0.89
- IC50 [4, 17]: 20 µM
- IC50 [4, 18]: 19.1 µM
- IC50/DZ IC50 [4]: 120
- IC50/OC IC50 ([4]; α2β2γ3, ratio to ocinaplon IC50): 0.98
- IC50 [5, 13]: 9.3 µM
- IC50 [5, 16]: 8.32 µM
- IC50/DZ IC50 [5]: 170
- IC50/OC IC50 ([5]; ratio to ocinaplon IC50): 1.09
- IC50 [6, 13]: 22 µM
- IC50 [6, 16]: 21.4 µM
- IC50/DZ IC50 [6]: 790
- IC50/OC IC50 ([6]; ratio to ocinaplon IC50): 2.24
- IC50 [7, 19]: 27 µM
- IC50 [7, 20]: 26.3 µM
- IC50/DZ IC50 [7]: 323
- IC50/OC IC50 ([7]; α5β2γ3, ratio to ocinaplon IC50): 2.59
- Emax [8]: 192 ± 4%
- EC50 [8, 21]: 4870 nM
- EC50/DZ EC50 ([8]; α1β2γ2S): 128
- Emax/DZ Emax ([8]; α1β2γ2S): 1.33
- EC50/OC EC50 ([8]; α1β2γ2S, ratio to ocinaplon EC50): 1.66
- Emax/OC Emax ([8]; α1β2γ2S, ratio to ocinaplon Emax): 1.45
- Emax [9]: 139 ± 23%
- EC50 ([9]; α2β2γ2S, GABA EC10, mean ± SEM, read-out: pEC50 (converted)): 12 µM
- EC50 [9, 22]: 12.5 µM
- EC50/DZ EC50 ([9]; α2β2γ2S): 482
- Emax/DZ Emax ([9]; α2β2γ2S): 0.88
- EC50/OC EC50 ([9]; α2β2γ2S, ratio to ocinaplon EC50): 1.37
- Emax/OC Emax ([9]; α2β2γ2S, ratio to ocinaplon Emax): 0.92
- Emax [10]: 68 ± 8%
- EC50 [10, 23]: 9.33 µM
- EC50 [10, 24]: 10.1 µM
- EC50/DZ EC50 ([10]; α5β2γ2S): 405
- Emax/DZ Emax ([10]; α5β2γ2S): 0.30
- EC50/OC EC50 ([10]; α5β2γ2S, ratio to ocinaplon EC50): 2.92
- Emax/OC Emax ([10]; α5β2γ2S, ratio to ocinaplon Emax): 0.81
- Emax [11]: 340 ± 35%
- EC50 [11, 25]: 10 µM
- EC50 [11, 26]: 10.2 µM
- EC50/DZ EC50 ([11]; α3β2γ2S): 111
- Emax/DZ Emax ([11]; α3β2γ2S): 1.46
- EC50/OC EC50 ([11]; α3β2γ2S, ratio to ocinaplon EC50): 1.27
- Emax/OC Emax ([11]; α3β2γ2S, ratio to ocinaplon Emax): ~1.87
- plasma concentration as % of the concentration of parent compound (ocinaplon) ([12]; rats, 1 h after administration of ocinaplon 5 mg/kg): ~ 38% and 38%

SMILES: CN1C(=O)CN=C(c2ccccc2)c2cc(Cl)ccc21 [diazepam, reference compound]
- Emax [8]: 144 ± 8%
- Emax [9]: 157 ± 14%
- Emax [10]: 224 ± 24%
- Emax [11]: 232 ± 31%
